According to patent publication US9737517B2, “Pharmaceutical use of hexahydro-dibenzo[a,g]quinolizine compounds” (SHANGHAI INSTITUTE OF MATERIA MEDICA, CHINESE ACADEMY OF …, priority 2013, dated 2017):
Values after ≈ are worked out from the molar mass of the structure shown. Like-named read-outs stand apart in the source and are kept apart here.

Key:
[1] = tested on: SD rats; assay: Repetitive dose toxicity experiment on SD rats for 14 days; assay type: in vivo; settings: oral, 100 and 200 mg/kg for 14 days
[2] = tested on: rat seminal vesicle; assay: Seminal vesicle contraction caused by electrical stimulation of hypogastric nerve in normal rats; assay type: in vivo; settings: P>0.05
From the text: Effect of DC037009 on Seminal Vesicle Contraction Caused by Electrical Stimulation of Hypogastric Nerve in Normal Rats

[3] = target: hERG (Homo sapiens, UniProt Q12809); assay: Inhibition effect on hERG; assay type: cell-based
Sequence of hERG (Q12809 whole entry): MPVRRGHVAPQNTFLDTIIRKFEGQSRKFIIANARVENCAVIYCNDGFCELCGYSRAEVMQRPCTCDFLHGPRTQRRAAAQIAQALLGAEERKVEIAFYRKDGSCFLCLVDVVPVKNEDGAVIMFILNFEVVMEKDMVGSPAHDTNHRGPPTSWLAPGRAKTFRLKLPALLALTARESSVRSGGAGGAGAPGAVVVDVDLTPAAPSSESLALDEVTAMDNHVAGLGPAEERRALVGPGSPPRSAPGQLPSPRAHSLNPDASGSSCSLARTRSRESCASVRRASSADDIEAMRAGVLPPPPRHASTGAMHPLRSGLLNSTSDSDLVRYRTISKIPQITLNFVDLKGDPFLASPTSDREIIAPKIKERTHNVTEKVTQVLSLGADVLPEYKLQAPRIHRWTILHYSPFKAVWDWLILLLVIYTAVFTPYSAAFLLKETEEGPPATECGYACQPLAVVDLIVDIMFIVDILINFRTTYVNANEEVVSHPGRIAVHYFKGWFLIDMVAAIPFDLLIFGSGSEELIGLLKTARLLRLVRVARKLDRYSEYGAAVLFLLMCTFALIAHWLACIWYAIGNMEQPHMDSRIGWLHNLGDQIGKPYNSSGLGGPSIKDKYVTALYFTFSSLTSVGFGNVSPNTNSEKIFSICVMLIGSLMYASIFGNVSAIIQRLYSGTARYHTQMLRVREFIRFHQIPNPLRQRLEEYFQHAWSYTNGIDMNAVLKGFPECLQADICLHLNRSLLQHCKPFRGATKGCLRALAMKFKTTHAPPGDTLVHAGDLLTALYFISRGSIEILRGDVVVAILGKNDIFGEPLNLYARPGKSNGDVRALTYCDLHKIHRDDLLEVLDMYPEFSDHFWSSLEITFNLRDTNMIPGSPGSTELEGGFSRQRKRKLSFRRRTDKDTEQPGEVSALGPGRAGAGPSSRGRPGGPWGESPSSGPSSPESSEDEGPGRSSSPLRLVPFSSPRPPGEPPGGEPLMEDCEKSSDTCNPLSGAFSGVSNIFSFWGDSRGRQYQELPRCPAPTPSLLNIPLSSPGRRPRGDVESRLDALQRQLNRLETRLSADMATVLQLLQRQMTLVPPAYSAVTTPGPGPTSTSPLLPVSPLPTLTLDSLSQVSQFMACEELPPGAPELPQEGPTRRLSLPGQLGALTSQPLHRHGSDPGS

[4] = Solubility in different pH solution and pH changes of the solution; assay type: physicochemical
[5] = pKa determination; assay type: physicochemical
[6] = In vitro metabolism in human liver microsomes; assay type: in vitro ADME
Procedure: The total volume of each incubation system was 200 μL, and the medium was 100 mM phosphate buffer solution (PBS, pH7.4) comprising a final concentration of 3 μM DC037009 and 2 mM NADPH. A37° C. water bath was used for incubation. After 3 minutes of pre-incubation, various liver microsomes protein were added into the buffer-substrate-cofactors mixture to start reaction. The concentration of liver microsomal protein of various species was 1.0 mg/mL. After reacting 60 min, the reaction was terminated with isovolumetric ice-cold acetonitrile. The total volume of blank was 200 μL, and the medium was 100 mM phosphate buffer solution (PBS, pH 7.4), comprising a final concentration of 3 μM DC037009 and heat inactivated microsomal proteins. All incubation samples were double.
A 150 μL sample from each of double incubation samples was mixed. A 300 μL of acetonitrile was added, mixed by vortexing for 1 min, and centrifuged 5 min (11000 rpm). The supernatant was placed in a 10 mL tube, and dried in 40° C. with nitrogen stream. The residue was dissolved with 100 μL methanol/water (1:9, v/v). A 10 μL sample was taken for UPLC/Q-TOF MS analysis.

[7] = Stability of the compound on heating; assay type: physicochemical; settings: heated at 80° C. for 24 hours
Procedure: Compound DC037009 was heated at 80° C. for 24 hours, and the compound purity only varied 0.5%.

[8] = pH = 1 solution after adding compound
[9] = pH = 2 solution after adding compound
[10] = pH = 4 solution after adding compound
[11] = pH = 6 solution after adding compound
[12] = pH = 8 solution after adding compound

COc1cc2c(cc1OC)CN1CCc3cc4c(cc3[C@@H]1C2)OCO4 [DC037009, S-(−)-2,3-methylenedioxy-10,11-dimethoxy-5,8,13,13a-tetrahydro-6H-dibenzo[a,g]quinolizine]
changes of blood and coagulation indicators and serum biochemical indicators [1]: did not show any toxicological significance | death [1]: no death rat was found | gross anatomy [1]: no pathological changes related to administrated drug | effect on contraction amplitude and area under contraction curve in rat seminal vesicle induced by electrical stimulation [2]: no significant inhibitive effect | antagonistic activity to α1A-receptor relative to inhibitory activity on hERG [3]: 272 folds | IC50 ([3]; hERG): 8.1 µM | Maximum inhibition rate (%) ([3]; hERG): 84.7% | pH of solution after adding compound [4]: would increase | solubility in acidic solution compared with alkaline solution [4]: greater than that in alkaline solution | solubility ([4]; pH 2 solution, pH 2, simulated gastric fluid, pH = 2 solution, read-out: Solubility (1)): > 1000 µg/mL | solubility ([4]; pH 2 solution, pH 2, simulated gastric fluid, pH = 2 solution, read-out: Solubility (2)): > 1000 µg/mL | solubility ([4]; pH 4 solution, pH 4, aqueous buffer, pH = 4 solution, read-out: Solubility (1)): 401 µg/mL (≈ 1180 µM) | solubility ([4]; pH 4 solution, pH 4, aqueous buffer, pH = 4 solution, read-out: Solubility (2)): 403 µg/mL (≈ 1190 µM) | Dissolving capacity ([4]; pH = 1 solution): Slightly soluble | pH value (1) [4, 8]: 1.09 | pH value (2) [4, 8]: 1.03 | solubility ([4]; pH = 1 solution, pH 1, simulated gastric fluid, pH = 1 solution, read-out: Solubility (1)): > 1000 µg/mL | solubility ([4]; pH = 1 solution, pH 1, simulated gastric fluid, pH = 1 solution, read-out: Solubility (2)): > 1000 µg/mL | Dissolving capacity ([4]; pH = 2 solution): Slightly soluble | pH value (1) [4, 9]: 2.02 | pH value (2) [4, 9]: 2.07 | Dissolving capacity ([4]; pH = 4 solution): Slightly soluble | pH value (1) [4, 10]: 5.02 | pH value (2) [4, 10]: 5.10 | Dissolving capacity ([4]; pH = 6 solution): Sparingly | pH value (1) [4, 11]: 6.11 | pH value (2) [4, 11]: 6.14 | solubility ([4]; pH = 6 solution, pH 6, aqueous buffer, pH = 6 solution, read-out: Solubility (1)): 46 µg/mL (≈ 136 µM) | solubility ([4]; pH = 6 solution, pH 6, aqueous buffer, pH = 6 solution, read-out: Solubility (2)): 50.2 µg/mL (≈ 148 µM) | Dissolving capacity ([4]; pH = 8 solution): Sparingly | pH value (1) [4, 12]: 8.06 | pH value (2) [4, 12]: 8.07 | solubility ([4]; pH = 8 solution, pH 8, aqueous buffer, pH = 8 solution, read-out: Solubility (1)): < 10 µg/mL | solubility ([4]; pH = 8 solution, pH 8, aqueous buffer, pH = 8 solution, read-out: Solubility (2)): < 10 µg/mL | pKa ([5]; methanol, solvent CH3OH, read-out: pKa (CH3OH)): 6.81 | pKa ([5]; water, solvent H2O, read-out: pKa (H2O)): 7.28 | Mass area, Human ([6]; 3 μM DC037009, 1.0 mg/mL microsomal protein, NADPH, 60 min, UPLC/Q-TOF MS): 416.8 | kinds of metabolites detected in human liver microsome ([6]; 60 min incubation): Four | metabolic stability in human liver microsome ([6]; 60 min incubation): relatively higher | variation of compound purity [7]: 0.5%
